Assay results from US7949164B2, “Lung cancer diagnosis using magnetic resonance imaging data obtained at three time points” (Yeda Research & Development Co. Ltd., priority 2005, dated 2011).

What was measured:
[1] = Contrast agent pharmacokinetics in plasma: bi-exponential fit of DCE-MRI signal enhancement curves (heart ventricle / great vessels) after bolus injection; assay type: in vivo; conditions: nude rats, bolus into tail vein, dose 0.1 mmol/kg wt
Protocol: Enhancement, E(t), is defined as the difference in signal intensities before and after contrast material injection: E(t)=[I(t)−I(t0)]/I(t0) Eq. (1) where I designates signal intensity. Assuming similar pharmacokinetics for all patients with normal kidney function, Cp(t) in ml contrast agent per liter blood may be given by the equation: Cp(t)=D(a1e^−m1^t+a2e^−m2^t) D=dose in ml/kg Eq. (2)
To determine contrast agent pharmacokinetics, GdDTPA was injected as a bolus into the tail of the rats at a dose of 0.1 mmol/kg. Changes in the bolus concentration of the contrast agent after injection were monitored by fitting the signal enhancement curves of the in vivo DCE-MRI studies, of regions of interest at the heart ventricle or in one of the great vessels, to a bi-exponential decay. Similar values were previously derived by measurements of blood samples taken after the bolus injection.
The time-dependent changes in signal enhancement were processed pixel-by-pixel using Tofts' physiological model, the contrast agent pharmacokinetics and pre-contrast T1 values (Table 1), and the calibration algorithms herein described.

[2] = listed under H460 NSCLC tumor tissue; Furman-Haran, 1997; cited from earlier work

Question: Which results are given for O=C([O-])CN(CCN(CC(=O)[O-])CC(=O)O)CCN(CC(=O)[O-])CC(=O)O.[Gd+3] [Gd-DTPA, Gadolinium-diethylene triamino pentaacetic acid]?
Answer: a1, Amplitude of fast decay [1]: 9.44 kg/L; a2, Amplitude of slow decay [1]: 3.99 kg/L; m1, Fast decay time constant [1]: 0.75 min⁻¹; m2, Slow decay time constant [1]: 0.033 min⁻¹; R1, T1 relaxivity [2]: 4.2 {Furman- s^−1mM^−1
